Data from PubChem BioAssay AID1963972 (Molecular Pharmacology Branch, DTP, NCI, 2024).
pIC50: −log10 of the molar value.

System: 945468-187-T-J2-PDC spheroids viability
Assay: Anticancer human tumor 945468-187-T-J2-PDC patient-derived rectal carcinoma cell line growth inhibition [PI3K]
Settings: spheroids with HUVEC and MSC; for pIC50: curve of first compound; for viability, T/C: stronger effect = lower value
Procedure, shortened: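 Spheroid viability read-out. Co-cultures contained the tumor line plus HUVEC and human MSCs. Each agent was paired with a PI3K inhibitor (inavolisib, alpelisib, duvelisib, copanlisib) across half-log dilutions starting at clinical Cmax, or at 10 microM when Cmax was unknown.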

[1] = second compound 0.00316 µM, first compound 0.0316 µM
[2] = second compound 0.00316 µM, first compound 0.1 µM
[3] = second compound 0.01 µM, first compound 0.0316 µM
[4] = second compound 0.01 µM, first compound 0.1 µM
[5] = second compound 0.0316 µM, first compound 0.0316 µM
[6] = second compound 0.0316 µM, first compound 0.1 µM
[7] = second compound 0.1 µM, first compound 0.0316 µM
[8] = second compound 0.1 µM, first compound 0.1 µM
[9] = second compound 0.316 µM, first compound 0.0316 µM
[10] = second compound 0.316 µM, first compound 0.1 µM
[11] = second compound 1 µM, first compound 0.0316 µM
[12] = second compound 1 µM, first compound 0.1 µM
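Note: spheroids exposed to compounds for seven days before reading.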

## CC(=O)c1c(C)c2cnc(Nc3ccc(N4CCNCC4)cn3)nc2n(C2CCCC2)c1=O + COc1c(OCCCN2CCOCC2)ccc2c3n(c(=NC(=O)c4cnc(N)nc4)nc12)CCN3
Second compound 0.00316 µM
  pIC50: < 7.00
Second compound 0.01 µM
  pIC50: < 7.00
Second compound 0.0316 µM
  pIC50: < 7.00
Second compound 0.1 µM
  pIC50: < 7.00
Second compound 0.316 µM
  pIC50: > 9.50
Second compound 1 µM
  pIC50: > 9.50
Second compound 0.00316 µM, first compound 0.000316 µM
  viability, T/C: 101%
Second compound 0.00316 µM, first compound 0.001 µM
  viability, T/C: 96.6%
Second compound 0.00316 µM, first compound 0.00316 µM
  viability, T/C: 110%
Second compound 0.00316 µM, first compound 0.01 µM
  viability, T/C: 103%
[1]
  viability, T/C: 96.3%
[2]
  viability, T/C: 112%
Second compound 0.01 µM, first compound 0.000316 µM
  viability, T/C: 135%
Second compound 0.01 µM, first compound 0.001 µM
  viability, T/C: 135%
Second compound 0.01 µM, first compound 0.00316 µM
  viability, T/C: 120%
Second compound 0.01 µM, first compound 0.01 µM
  viability, T/C: 108%
[3]
  viability, T/C: 110%
[4]
  viability, T/C: 130%
Second compound 0.0316 µM, first compound 0.000316 µM
  viability, T/C: 115%
Second compound 0.0316 µM, first compound 0.001 µM
  viability, T/C: 95.4%
Second compound 0.0316 µM, first compound 0.00316 µM
  viability, T/C: 101%
Second compound 0.0316 µM, first compound 0.01 µM
  viability, T/C: 105%
[5]
  viability, T/C: 118%
[6]
  viability, T/C: 113%
Second compound 0.1 µM, first compound 0.000316 µM
  viability, T/C: 102%
Second compound 0.1 µM, first compound 0.001 µM
  viability, T/C: 101%
Second compound 0.1 µM, first compound 0.00316 µM
  viability, T/C: 115%
Second compound 0.1 µM, first compound 0.01 µM
  viability, T/C: 80%
[7]
  viability, T/C: 85.5%
[8]
  viability, T/C: 89.9%
Second compound 0.316 µM, first compound 0.000316 µM
  viability, T/C: 38.6%
Second compound 0.316 µM, first compound 0.001 µM
  viability, T/C: 36.7%
Second compound 0.316 µM, first compound 0.00316 µM
  viability, T/C: 45.7%
Second compound 0.316 µM, first compound 0.01 µM
  viability, T/C: 40.9%
[9]
  viability, T/C: 36.2%
[10]
  viability, T/C: 37.4%
Second compound 1 µM, first compound 0.000316 µM
  viability, T/C: 24.2%
Second compound 1 µM, first compound 0.001 µM
  viability, T/C: 21.4%
Second compound 1 µM, first compound 0.00316 µM
  viability, T/C: 28.7%
Second compound 1 µM, first compound 0.01 µM
  viability, T/C: 21.6%
[11]
  viability, T/C: 22.8%
[12]
  viability, T/C: 18.5%

## CCCS(=O)(=O)Nc1ccc(F)c(C(=O)c2c[nH]c3ncc(-c4ccc(Cl)cc4)cc23)c1F + COc1c(OCCCN2CCOCC2)ccc2c3n(c(=NC(=O)c4cnc(N)nc4)nc12)CCN3
Second compound 0.00316 µM
  pIC50: 5.24
Second compound 0.01 µM
  pIC50: 5.19
Second compound 0.0316 µM
  pIC50: 5.25
Second compound 0.1 µM
  pIC50: 5.22
Second compound 0.316 µM
  pIC50: > 7.50
Second compound 1 µM
  pIC50: > 7.50
[1]
  viability, T/C: 95.3%
[2]
  viability, T/C: 106%
Second compound 0.00316 µM, first compound 0.316 µM
  viability, T/C: 111%
Second compound 0.00316 µM, first compound 1 µM
  viability, T/C: 116%
Second compound 0.00316 µM, first compound 3.16 µM
  viability, T/C: 89.2%
Second compound 0.00316 µM, first compound 10 µM
  viability, T/C: 14.6%
[3]
  viability, T/C: 109%
[4]
  viability, T/C: 82%
Second compound 0.01 µM, first compound 0.316 µM
  viability, T/C: 79.8%
Second compound 0.01 µM, first compound 1 µM
  viability, T/C: 92.5%
Second compound 0.01 µM, first compound 3.16 µM
  viability, T/C: 105%
Second compound 0.01 µM, first compound 10 µM
  viability, T/C: 22.9%
[5]
  viability, T/C: 100%
[6]
  viability, T/C: 91.4%
Second compound 0.0316 µM, first compound 0.316 µM
  viability, T/C: 90.2%
Second compound 0.0316 µM, first compound 1 µM
  viability, T/C: 103%
Second compound 0.0316 µM, first compound 3.16 µM
  viability, T/C: 75.2%
Second compound 0.0316 µM, first compound 10 µM
  viability, T/C: 24.2%
[7]
  viability, T/C: 73.1%
[8]
  viability, T/C: 90.5%
Second compound 0.1 µM, first compound 0.316 µM
  viability, T/C: 77.7%
Second compound 0.1 µM, first compound 1 µM
  viability, T/C: 77.6%
Second compound 0.1 µM, first compound 3.16 µM
  viability, T/C: 77.2%
Second compound 0.1 µM, first compound 10 µM
  viability, T/C: 29%
[9]
  viability, T/C: 38.7%
[10]
  viability, T/C: 37%
Second compound 0.316 µM, first compound 0.316 µM
  viability, T/C: 36.9%
Second compound 0.316 µM, first compound 1 µM
  viability, T/C: 34%
Second compound 0.316 µM, first compound 3.16 µM
  viability, T/C: 35.3%
Second compound 0.316 µM, first compound 10 µM
  viability, T/C: 21.5%
[11]
  viability, T/C: 21.4%
[12]
  viability, T/C: 22.6%
Second compound 1 µM, first compound 0.316 µM
  viability, T/C: 21.9%
Second compound 1 µM, first compound 1 µM
  viability, T/C: 19.5%
Second compound 1 µM, first compound 3.16 µM
  viability, T/C: 25.7%
Second compound 1 µM, first compound 10 µM
  viability, T/C: 15.6%
